Test results published in ChEMBL document CHEMBL5233229, “Recent advances in the development of ubiquitin-specific-processing protease 7 (USP7) inhibitors” (Eur J Med Chem, 2020).

Tests used:
[1] = target: T1, Ubiquitin carboxyl-terminal hydrolase 7 (Homo sapiens, UniProt Q93009); experiment: Inhibition of human USP7 using ubiquitin-Rh110 as substrate incubated for 30 mins by Fluorometric plate reader analysis
[2] = target: T2, Ubiquitin carboxyl-terminal hydrolase 47 (Homo sapiens, UniProt Q96K76); experiment: Inhibition of human USP47 using Ub-EKL as substrate by SDS-PAGE assay
T2 sequence (Q96K76 whole entry): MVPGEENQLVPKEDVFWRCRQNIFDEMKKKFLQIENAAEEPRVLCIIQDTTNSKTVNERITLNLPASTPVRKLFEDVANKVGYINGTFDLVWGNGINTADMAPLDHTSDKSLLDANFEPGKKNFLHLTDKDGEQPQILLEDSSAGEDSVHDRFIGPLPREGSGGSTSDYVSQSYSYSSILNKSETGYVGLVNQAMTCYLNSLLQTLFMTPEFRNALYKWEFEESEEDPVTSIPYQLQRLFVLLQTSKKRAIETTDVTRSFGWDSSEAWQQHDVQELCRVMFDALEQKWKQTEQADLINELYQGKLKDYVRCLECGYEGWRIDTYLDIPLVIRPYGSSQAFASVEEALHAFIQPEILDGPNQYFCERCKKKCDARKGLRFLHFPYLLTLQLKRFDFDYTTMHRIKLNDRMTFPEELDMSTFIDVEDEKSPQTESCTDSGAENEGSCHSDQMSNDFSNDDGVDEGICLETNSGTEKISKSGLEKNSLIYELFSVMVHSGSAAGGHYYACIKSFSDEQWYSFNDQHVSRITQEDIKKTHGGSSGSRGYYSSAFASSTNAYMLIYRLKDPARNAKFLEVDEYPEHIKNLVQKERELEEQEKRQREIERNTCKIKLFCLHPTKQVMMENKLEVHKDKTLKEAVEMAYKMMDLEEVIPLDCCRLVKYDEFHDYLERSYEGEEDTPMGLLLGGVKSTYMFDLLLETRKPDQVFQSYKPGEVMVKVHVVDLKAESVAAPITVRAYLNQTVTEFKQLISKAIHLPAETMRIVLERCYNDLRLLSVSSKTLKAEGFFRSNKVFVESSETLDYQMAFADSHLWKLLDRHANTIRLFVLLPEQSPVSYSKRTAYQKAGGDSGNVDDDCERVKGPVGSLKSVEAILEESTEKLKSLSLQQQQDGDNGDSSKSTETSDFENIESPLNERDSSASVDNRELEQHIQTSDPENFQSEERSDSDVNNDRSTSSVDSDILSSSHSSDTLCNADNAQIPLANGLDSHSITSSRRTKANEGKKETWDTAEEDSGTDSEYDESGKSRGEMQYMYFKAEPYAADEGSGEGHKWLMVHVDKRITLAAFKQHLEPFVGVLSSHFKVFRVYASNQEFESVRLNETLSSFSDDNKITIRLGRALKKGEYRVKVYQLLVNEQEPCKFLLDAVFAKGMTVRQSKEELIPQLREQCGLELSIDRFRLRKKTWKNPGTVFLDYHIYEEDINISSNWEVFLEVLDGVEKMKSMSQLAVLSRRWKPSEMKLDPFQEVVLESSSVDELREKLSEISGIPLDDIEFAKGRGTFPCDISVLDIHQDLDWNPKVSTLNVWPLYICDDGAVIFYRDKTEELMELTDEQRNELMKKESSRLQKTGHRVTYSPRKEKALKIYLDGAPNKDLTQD

[3] = target: T1, Ubiquitin carboxyl-terminal hydrolase 7; experiment: Inhibition of human USP7 using Ub-EKL as substrate by SDS-PAGE assay
[4] = target: T1, Ubiquitin carboxyl-terminal hydrolase 7; experiment: Inhibition of human USP7 using human N-terminal GST-tagged UBA52 as substrate preincubated for 10 mins followed by substrate addition measured after 45 mins by coomassie brilliant blue staining-based SDS-PAGE analysis
[5] = target: T1, Ubiquitin carboxyl-terminal hydrolase 7; experiment: Inhibition of human USP7 using Ub-AMC as substrate

T1 sequence (Q93009 whole entry): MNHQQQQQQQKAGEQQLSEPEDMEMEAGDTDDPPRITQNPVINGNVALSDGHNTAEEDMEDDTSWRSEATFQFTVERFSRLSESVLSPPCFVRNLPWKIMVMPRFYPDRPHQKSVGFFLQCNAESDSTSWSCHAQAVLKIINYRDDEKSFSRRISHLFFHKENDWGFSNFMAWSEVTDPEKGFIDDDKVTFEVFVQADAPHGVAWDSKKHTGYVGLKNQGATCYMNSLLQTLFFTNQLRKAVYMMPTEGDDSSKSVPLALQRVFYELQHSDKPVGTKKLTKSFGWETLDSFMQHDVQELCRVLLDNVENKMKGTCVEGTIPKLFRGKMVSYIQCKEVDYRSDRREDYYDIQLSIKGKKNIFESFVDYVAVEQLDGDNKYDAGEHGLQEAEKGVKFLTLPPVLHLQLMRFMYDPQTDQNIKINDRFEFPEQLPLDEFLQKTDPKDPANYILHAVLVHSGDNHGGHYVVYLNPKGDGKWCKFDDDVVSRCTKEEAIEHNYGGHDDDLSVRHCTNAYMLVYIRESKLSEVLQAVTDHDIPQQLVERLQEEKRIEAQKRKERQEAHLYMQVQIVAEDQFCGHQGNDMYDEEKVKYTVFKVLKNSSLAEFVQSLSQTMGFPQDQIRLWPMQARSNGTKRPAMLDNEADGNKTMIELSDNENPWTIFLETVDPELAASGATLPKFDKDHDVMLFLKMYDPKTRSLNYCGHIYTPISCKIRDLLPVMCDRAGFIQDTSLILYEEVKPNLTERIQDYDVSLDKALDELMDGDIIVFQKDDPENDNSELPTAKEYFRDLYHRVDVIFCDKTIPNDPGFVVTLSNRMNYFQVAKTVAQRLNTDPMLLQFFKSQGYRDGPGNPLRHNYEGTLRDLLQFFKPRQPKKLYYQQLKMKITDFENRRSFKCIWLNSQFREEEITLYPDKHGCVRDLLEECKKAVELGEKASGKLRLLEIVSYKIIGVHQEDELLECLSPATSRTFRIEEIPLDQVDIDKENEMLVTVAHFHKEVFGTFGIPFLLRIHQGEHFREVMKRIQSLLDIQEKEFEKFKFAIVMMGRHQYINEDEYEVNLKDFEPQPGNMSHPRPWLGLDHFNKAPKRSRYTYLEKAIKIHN

EC50 [2]	EC50 [3]	Compound	other results
		C[C@@]12CCCc3coc(c31)Cc1cc3c(cc12)C(=O)C(C1=CC(=O)c2cc4c(cc2C1=O)C(=O)c1occ2c1[C@@]4(C)CCC2)=CC3=O	IC50 [1]: 470 nM
		C[C@@]12CCCc3coc(c31)C(=O)c1cc3c(cc12)C(=O)C=C([C@]12CCC[C@@]4(C)c5cc6c(OS(=O)(=O)O)ccc(O)c6cc5C(=O)O[C@]14C(=O)OC2)C3=O	IC50 [1]: 2000 nM
9300 nM	850 nM	CS(=O)(=O)c1ccccc1NC(=O)c1cc([N+](=O)[O-])c(Sc2c(Cl)cncc2Cl)s1	
		CC1(C)CC[C@]2(C(=O)O)[C@H](O)C[C@]3(C)C(=CC[C@@H]4[C@@]5(C)C[C@H](O)[C@H](O)[C@@](C)(CO)[C@@H]5CC[C@]43C)[C@@H]2C1	IC50 [4]: > 50000 nM
2030 nM	130 nM	O=C(Nc1ccc2c(c1)S(=O)(=O)CC2)c1cc([N+](=O)[O-])c(Sc2c(Cl)cncc2Cl)s1	
		CC1(C)CC[C@]2(C(=O)O)CC[C@]3(C)C(=CC[C@@H]4[C@@]5(C)C[C@H](O)[C@H](O)[C@@](C)(CO)[C@@H]5CC[C@]43C)[C@@H]2C1	IC50 [4]: > 50000 nM
		CC1(C)[C@H](O)CC[C@]2(C)[C@H]3C(=O)C=C4[C@@H]5C[C@@](C)(C(=O)O)CC[C@]5(C)CC[C@]4(C)[C@@]3(C)CC[C@@H]12	IC50 [4]: > 50000 nM
		COC(=O)[C@]12CC[C@@H](C)[C@H](C)[C@H]1C1=CC[C@@H]3[C@@]4(C)CC[C@H](O)C(C)(C)[C@@H]4CC[C@@]3(C)[C@]1(C)CC2 [METHYL URSOLATE]	IC50 [4]: > 50000 nM
360 nM	170 nM	CC1=CS(=O)(=O)c2cc(NC(=O)c3cc([N+](=O)[O-])c(Sc4c(Cl)cncc4Cl)s3)ccc21	
		CC1(C)CC[C@]2(C(=O)O)CC[C@]3(C)C(=CC[C@@H]4[C@@]5(C)CC[C@H](O)C(C)(C)[C@@H]5CC[C@]43C)[C@@H]2C1 [OLEANOLIC_ACID]	IC50 [4]: 12500 nM
		C[C@H]1[C@H](C)CC[C@]2(C(=O)O)CC[C@]3(C)C(=CC[C@@H]4[C@@]5(C)C[C@@H](O)[C@H](O)[C@@](C)(CO)[C@@H]5CC[C@]43C)[C@H]12 [ASIATIC ACID]	IC50 [4]: > 50000 nM
1280 nM	640 nM	CS(=O)(=O)Nc1cccc(NC(=O)c2cc([N+](=O)[O-])c(Sc3c(Cl)cncc3Cl)s2)c1	
360 nM	75 nM	CC1CS(=O)(=O)c2cc(NC(=O)c3cc([N+](=O)[O-])c(Sc4c(Cl)cncc4Cl)s3)ccc21 (stereo unspecified)	
1600 nM	810 nM	O=C(NC1CCS(=O)(=O)c2ccccc21)c1cc([N+](=O)[O-])c(Sc2c(Cl)cncc2Cl)s1 (stereo unspecified)	
450 nM	500 nM	CN(C)CCOc1ccc(NC(=O)c2cc([N+](=O)[O-])c(Sc3c(Cl)cncc3Cl)s2)cc1	
		CC(=O)O[C@H]1CC[C@]2(C)[C@H]3CC=C4[C@@H]5[C@@H](C)[C@H](C)CC[C@]5(C(=O)O)CC[C@@]4(C)[C@]3(C)CC[C@H]2C1(C)C [O-ACETYLURSOLIC ACID]	IC50 [4]: > 50000 nM
		C[C@H](CC(=O)N1CCC(O)(Cn2cnc3cc(NC(=O)CCN(C)C)ccc3c2=O)CC1)c1ccccc1	IC50 [5]: 130 nM
1400 nM	510 nM	CS(=O)(=O)c1cccc(NC(=O)c2cc([N+](=O)[O-])c(Sc3c(Cl)cncc3Cl)s2)c1	
1100 nM	470 nM	CC1CS(=N)(=O)c2cc(NC(=O)c3cc([N+](=O)[O-])c(Sc4c(Cl)cncc4Cl)s3)ccc21 (stereo unspecified)	
200 nM	220 nM	CN(C)CCNC1CS(=O)(=O)c2cc(NC(=O)c3cc([N+](=O)[O-])c(Sc4c(Cl)cncc4Cl)s3)ccc21 (stereo unspecified)	
		CC(CC(=O)N1CCC(O)(Cn2cnc3cc(NC(=O)CCN4CCCCC4)ccc3c2=O)CC1)c1ccccc1 (stereo unspecified)	IC50 [5]: 350 nM
6400 nM	4300 nM	O=C(c1cc([N+](=O)[O-])c(Sc2c(Cl)cncc2Cl)s1)N1CCS(=O)(=O)CC1	
11800 nM	6800 nM	CS(=O)(=O)c1ccc(NC(=O)c2cc([N+](=O)[O-])c(Sc3c(Cl)cncc3Cl)s2)cc1	
5100 nM	590 nM	N#Cc1cc(C(=O)Nc2ccc3c(c2)S(=O)(=O)C=C3)sc1Sc1c(Cl)cncc1Cl	
940 nM	420 nM	CCS(=O)(=O)c1cccc(NC(=O)c2cc([N+](=O)[O-])c(Sc3c(Cl)cncc3Cl)s2)c1	

EC50 [2]	EC50 [3]	Compound	other results
		CC(CC(=O)N1CCC(O)(Cn2cnc3cc(Cl)ccc3c2=O)CC1)c1ccccc1 (stereo unspecified)	IC50 [5]: 1300 nM
1330 nM	100 nM	O=C(Nc1ccc2c(c1)S(=O)(=O)C=C2)c1cc([N+](=O)[O-])c(Sc2c(Cl)cncc2Cl)s1	
		C[C@H](CC(=O)N1CCC(O)(Cn2cnc3cc(NC(=O)CCN4CCN(C)CC4)ccc3c2=O)CC1)c1ccccc1	IC50 [5]: 190 nM
1500 nM	390 nM	O=C(Nc1cccc(S(=O)(=O)CC2CC2)c1)c1cc([N+](=O)[O-])c(Sc2c(Cl)cncc2Cl)s1	
		C[C@H](CC(=O)N1CCC(O)(Cn2cnc3cc(NC(=O)CCN4CCOCC4)ccc3c2=O)CC1)c1ccccc1	IC50 [5]: 480 nM
		C=C(C)[C@@H]1CC[C@]2(C)CC[C@]3(C)[C@H](CC[C@@H]4[C@@]5(C)CC[C@H](O)C(C)(C)[C@@H]5CC[C@]43C)[C@H]2C1	IC50 [4]: > 50000 nM
		N#CC1(Cn2cnc3cc(Cl)ccc3c2=O)CCN(C(=O)CCc2ccccc2)CC1	IC50 [5]: > 100000 nM
3500 nM	2100 nM	O=C(NC1CCS(=O)(=O)CC1)c1cc([N+](=O)[O-])c(Sc2c(Cl)cncc2Cl)s1	
4100 nM	4800 nM	O=C(NC1CCS(=O)(=O)C2COCCC12)c1cc([N+](=O)[O-])c(Sc2c(Cl)cncc2Cl)s1 (stereo unspecified)	
		O=C(CCc1ccccc1)N1CCC(O)(Cn2cnc3cc(Cl)ccc3c2=O)C1 (stereo unspecified)	IC50 [5]: > 100000 nM
		CC(=O)N1CCC(O)(Cn2cnc3cc(Cl)ccc3c2=O)CC1	IC50 [5]: > 100000 nM
2000 nM	790 nM	COCCNC1CS(=O)(=O)c2cc(NC(=O)c3cc([N+](=O)[O-])c(Sc4c(Cl)cncc4Cl)s3)ccc21 (stereo unspecified)	
		C[C@H](CC(=O)N1CCC(O)(Cn2cnc3cc(Cl)ccc3c2=O)CC1)c1ccccc1	IC50 [5]: 420 nM
		C[C@H]1[C@H](C)CC[C@]2(C(=O)O)CC[C@]3(C)C(=CC[C@@H]4[C@@]5(C)C[C@@H](O)[C@H](O)C(C)(C)[C@@H]5CC[C@]43C)[C@H]12 [COROSOLIC ACID]	IC50 [4]: 22700 nM
		CC1(C)CCC2(C(=O)O)CCC3=C([C@@H](CCl)C[C@@H]4[C@@]5(C)C[C@H](O)[C@H](O)[C@](C)(C(=O)O)[C@@H]5CC[C@]34C)[C@@H]2C1 (single isomer, unassigned)	IC50 [4]: > 50000 nM
		O=c1c2ccc(Cl)cc2ncn1CC1(O)CCN(CCCc2ccccc2)CC1	IC50 [5]: > 100000 nM
2200 nM	2000 nM	CS(=N)(=O)c1cccc(NC(=O)c2cc([N+](=O)[O-])c(Sc3c(Cl)cncc3Cl)s2)c1 (stereo unspecified)	
		CC1(C)CC[C@]2(C(=O)O)CC[C@]3(C)C(=CC[C@@H]4[C@@]5(C)CC[C@H](O)[C@@](C)(CO)[C@@H]5CC[C@]43C)[C@@H]2C1 [HEDERAGENIN]	IC50 [4]: 33500 nM
		O=C(CCc1ccccc1)N1CCC(Cn2cnc3cc(Cl)ccc3c2=O)CC1	IC50 [5]: > 100000 nM
1590 nM	560 nM	O=C(Nc1cccc(S(=O)(=O)C2CC2)c1)c1cc([N+](=O)[O-])c(Sc2c(Cl)cncc2Cl)s1	
		C[C@@H](CC(=O)N1CCC(O)(Cn2cnc3cc(Cl)ccc3c2=O)CC1)c1ccccc1	IC50 [5]: 40000 nM
		CC(CC(=O)N1CCC(O)(Cn2cnc3cc(NC(=O)CCN4CCN(C)CC4)ccc3c2=O)CC1)c1ccccc1 (stereo unspecified)	IC50 [5]: 560 nM
		O=C(Cc1ccccc1)N1CCC(O)(Cn2cnc3cc(Cl)ccc3c2=O)CC1	IC50 [5]: > 100000 nM
		C=C(C)[C@@H]1CC[C@]2(C(=O)O)CC[C@]3(C)[C@H](CC[C@@H]4[C@@]5(C)CC[C@H](O)C(C)(C)[C@@H]5CC[C@]43C)[C@H]2C1	IC50 [4]: 33300 nM
		C[C@H]1[C@H](C)CC[C@]2(C(=O)O)CC[C@]3(C)C(=CC[C@@H]4[C@@]5(C)C[C@@H](O)[C@H](O)[C@@](C)(CO)[C@@H]5[C@H](O)C[C@]43C)[C@H]12 [MADECASSIC ACID]	IC50 [4]: > 50000 nM
